# Measurements: patent publication US12630521B2, “Arylamides and methods of use thereof” (Genzyme Corporation, priority 2019, dated 2026)
# Tests used:
# [1] = target: T1, CFTR (ΔF508 homozygous CF-HBE cells) (Homo sapiens, UniProt P13569, DEL508-508); experiment: TECC24 AUC fold over DMSO @10 uM: CFTR-mediated transepithelial chloride transport in primary CF-HBE cells; format: cell-based; conditions: 10 μM test agent, 48 hours, forskolin-stimulated IEQ AUC divided by vehicle AUC
# T1 construct: Primary human bronchial epithelial cells from a ΔF508 homozygous CF donor; host or cells: primary CF-HBE cells (ΔF508/ΔF508 donor)
# Experimental: Example 37: TECC24 AUC Fold Over DMSO @10 uM
# The effects of a test agent on CFTR-mediated transepithelial chloride transport was measured using TECC24 recording analysis. Test agents were solubilized in DMSO. Solubilized test agents were mixed with incubation medium containing DMEM/F12, Ultroser G (2%; Crescent Chemical, catalog #67042), Hyclone Fetal Clone 11(2%; GE Healthcare, catalog #SH30066.02), bovine brain extract (0.25%; Lonza, catalog #CC-4098), insulin (2.5 μg/mL), IL-13 (10 ng/mL), hydrocortisone (20 nM), transferrin (2.5 μg/mL), triiodothyronine (500 nM), ethanolamine (250 nM), epinephrine (1.5 μM), phosphoethanolamine (250 nM), and retinoic acid (10 nM). Primary human bronchial epithelial cells from a ΔF508 homozygous CF donor (CF-HBE cells; from University of North Carolina Cystic Fibrosis Tissue Procurement Center), grown on Transwell HTS 24-well cell culture inserts (Costar, catalog #3378), were exposed to test agents or controls dissolved in incubation medium. The CF-HBE cells were cultured at 36.5° C. for 48 hours before TECC24 recordings were performed in the presence or absence of test agent, a positive control or vehicle (DMSO).
# Following incubation, the transwell cell culture inserts containing the test agent or control-treated CF-HBE cells were loaded onto a TECC24 apparatus (TECC v7 or MTECC v2; EP Design) to record the transepithelial voltage (VT) and resistance (TEER) using 4 AgCl electrodes per well configured in current-clamp mode. The apical and basolateral bath solutions both contained (in mM) 140 NaCl, 5 KCl, 2 CaCl2, 1 MgCl2, 10 Hepes, and 10 glucose (adjusted to pH 7.4 with NaOH). To inhibit basal Na+ absorption, the ENaC inhibitor benzamil (10 μM) was added to the bath. Then, the adenylate cyclase activator, forskolin (10 μM), was added to the bath to activate CFTR. The forskolin-stimulated Cl— transport was halted by addition of CFTR inhibitor-172 (20 μM) to the bath at the end of the experiment to confirm specificity. VT and TEER recordings were digitally acquired at routine intervals using TECC or MTECC software (EP Design). VT and TEER were transformed into equivalent transepithelial Cl-current (IEQ), and the Area Under the Curve (AUC) of the IEQ time course between forskolin and CFTR inhibitor-172 addition is generated using Excel (Microsoft). Efficacy is expressed as the ratio of the test agent AUC divided by vehicle AUC. EC50s based on AUC are generated using the non-linear regression log(agonist) vs. response function in Prism software (GraphPad) with Hill Slope fixed=1.
# If a test agent increased the AUC of the forskolin-stimulated IEQ relative to vehicle in CF-HBE cells, and this increase was inhibited by CFTR inhibitor-172, then the test agent was considered a CFTR corrector.
# [2] = target: T2, human Cystic Fibrosis Transmembrane Conductance Regulator (CFTR) harboring the ΔF508 mutation (Homo sapiens, UniProt P13569, DEL508-508); experiment: H441 cell Emax and EC50: HRP-tagged ΔF508-CFTR cell-surface luminescence assay; format: cell-based; conditions: H441 cells expressing HRP-tagged ΔF508-CFTR, 27° C. for two nights; for EC50: 15-point dose-response; for Emax: NCI-H441, % of maximum VX809 signal
# T2 construct: expressed in transfected cells; host or cells: H441 carcinoma cell line (G418 selection)
# Text: Example 36: H441 Cell Emax and EC50
# Two cell lines were used, the H441 carcinoma line and the CFHBE41o− (41o−) human bronchial epithelial line. Both cell lines expressed human Cystic Fibrosis Transmembrane Conductance Regulator (CFTR) harboring the ΔF508 mutation and with an in-frame fusion in CFTR extracellular loop 4 of Horse Radish Peroxidase (HRP) under control of the CMV promoter. In the presence of the HRP tag, ΔF508-CFTR transported to the cell surface was detectable upon addition of an HRP substrate (Luminata Forte). Both cell types were cultivated at 37° C. with CO2.
# For both cell types, the medium was changed every other day unless the culture was at low % confluence. Cells were used for the assays at ˜75% confluence.
# DMSO/Compound Dilutions Plate for 15-Point Dose-Response Testing
# To a polypropylene (PP) 384-well plate, 15 μls DMSO was added to all wells in columns 1-22 and 24 (low Control). 15 μls of 260 μM VX809 (Lumacaftor), Selleckchem S1565, was added to column 23 wells (high Control). 15 μls of 10 mM test compound or VX809 (control) were added to wells of row A. Serial dilutions of Row A compound were performed 2×15 μls in rows A through 0 (15-point).
# A PP, 384-well plate containing the appropriate cell culture medium was prepared for each assay plate with 100 μls per well. For the doxycycline-induced 41o− cells, doxycycline for both the assay plate and the medium dilution plate was added at 0.0005 mg/ml to the medium.
# Both cell lines were plated for the assay at 30 μls per 384-well at 3.4×10^e5 cells per ml (˜10K cells/well). H441 cells were plated on opaque, white, Corning plate 3704. 41o− cells were plated on collagen-coated opaque, white, Corning plate 356665. For 41o− cells, doxycycline was added to the medium.
# Compound Addition/Assay Incubation
# Using FX (Beckman) protocol, 10 μls diluted compound or medium was added per well to the Assay Plate as: 2 μls DMSO Dilution plate well is diluted in 100 μls of the Medium Dilution Plate well, mixed, and 10 μls is transferred to the Assay Plate.
# The final assay dilution series is 24.5, 12.3, 6.1, 3.1, 1.5, 0.8, 0.4, 0.2, 0.1, 0.05, 0.02, 0.01, 0.006, 0.003, 0.001 and 0 μM. The 41o− assay plates were incubated at 37° C. w/CO2, the H441 assay plates were incubated at 27° C. w/CO2, each overnight for two nights.
# Assay Result Determination
# After being brought to room temperature, the assay plate liquid was removed. 30 uls of Luminata Forte (Millipore ELLUF0100) was added per well and incubated at room temperature for 10 min. The plates were then read on a Topcount, protocol LumiMatti (CPS, luminescence). The data was analyzed for % of maximum, maximum VX809 signal, and EC50 using Pearl and SPEED tools.
# T2 sequence (P13569 with tags, fused parts or gaps DEL508-508): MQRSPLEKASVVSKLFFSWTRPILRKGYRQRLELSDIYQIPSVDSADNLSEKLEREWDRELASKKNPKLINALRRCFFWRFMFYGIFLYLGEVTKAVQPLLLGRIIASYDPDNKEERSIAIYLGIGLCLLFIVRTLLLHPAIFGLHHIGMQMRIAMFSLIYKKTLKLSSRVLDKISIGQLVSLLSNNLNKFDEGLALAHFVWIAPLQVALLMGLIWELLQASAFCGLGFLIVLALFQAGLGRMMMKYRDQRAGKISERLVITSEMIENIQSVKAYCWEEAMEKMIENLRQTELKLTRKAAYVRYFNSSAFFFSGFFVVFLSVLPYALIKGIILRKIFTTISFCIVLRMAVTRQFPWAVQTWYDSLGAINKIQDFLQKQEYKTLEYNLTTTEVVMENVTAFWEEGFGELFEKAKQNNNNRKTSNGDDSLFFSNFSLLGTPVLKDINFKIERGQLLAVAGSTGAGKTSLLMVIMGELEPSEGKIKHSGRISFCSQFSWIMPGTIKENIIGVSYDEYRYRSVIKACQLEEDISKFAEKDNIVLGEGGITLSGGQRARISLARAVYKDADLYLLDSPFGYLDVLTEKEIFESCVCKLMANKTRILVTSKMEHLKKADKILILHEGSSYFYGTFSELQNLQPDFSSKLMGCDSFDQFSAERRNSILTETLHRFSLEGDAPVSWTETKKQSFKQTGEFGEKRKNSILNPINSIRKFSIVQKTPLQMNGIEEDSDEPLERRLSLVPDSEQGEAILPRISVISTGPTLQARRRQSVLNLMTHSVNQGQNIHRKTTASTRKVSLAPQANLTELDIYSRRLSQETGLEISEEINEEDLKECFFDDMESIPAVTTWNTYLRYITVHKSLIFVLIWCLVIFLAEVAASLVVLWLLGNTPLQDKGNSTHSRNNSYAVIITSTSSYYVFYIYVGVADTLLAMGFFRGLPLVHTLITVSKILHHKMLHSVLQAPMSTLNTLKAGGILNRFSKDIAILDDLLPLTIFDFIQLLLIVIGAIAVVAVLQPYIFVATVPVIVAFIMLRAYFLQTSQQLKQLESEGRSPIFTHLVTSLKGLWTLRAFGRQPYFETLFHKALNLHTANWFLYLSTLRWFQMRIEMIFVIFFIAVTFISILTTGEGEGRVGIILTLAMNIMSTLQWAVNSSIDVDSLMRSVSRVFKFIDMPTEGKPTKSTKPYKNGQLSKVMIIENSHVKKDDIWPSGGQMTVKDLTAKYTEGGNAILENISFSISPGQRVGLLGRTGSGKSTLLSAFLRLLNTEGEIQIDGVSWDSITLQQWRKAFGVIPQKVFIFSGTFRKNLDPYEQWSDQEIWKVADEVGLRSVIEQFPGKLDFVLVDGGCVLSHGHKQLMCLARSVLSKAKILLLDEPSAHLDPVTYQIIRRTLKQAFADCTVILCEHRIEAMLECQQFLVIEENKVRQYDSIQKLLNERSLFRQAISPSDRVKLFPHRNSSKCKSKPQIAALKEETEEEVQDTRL
# T1 sequence (P13569 with tags, fused parts or gaps DEL508-508): as above
TECC24 AUC fold over DMSO [1],EC50 [2] [nM],Emax [2] [%],Compound
A (“A” refers to AUC @10 μM > 6),755,169,"CCC(C)(C)[C@H](NC(=O)c1ccc2cc(Cl)sc2c1OCc1ccc(OC(F)(F)F)cc1)C(=O)O [Compound 33-22, (2S)-2-(2-chloro-7-((4-(trifluoromethoxy)benzyl)oxy)-benzo[b]thiophene-6-carboxamido)-3,3-dimethylpentanoic acid]"
A (“A” refers to AUC @10 μM > 6),102,263,"CCC(C)(C)[C@H](NC(=O)c1ccc2sc(C)cc2c1OCc1ccc(OC(F)(F)F)cc1)C(=O)O [Compound 33-30, (2S)-3,3-dimethyl-2-(2-methyl-4-((4-(trifluoromethoxy)benzyl)oxy)-benzo[b]thiophene-5-carboxamido)pentanoic acid]"
A (“A” refers to AUC @10 μM > 6),509,106,"Cc1c(Cl)sc2ccc(C(=O)N[C@H](C(=O)O)C3(C)CC3)c(OCc3ccc(OC(F)(F)F)cc3)c12 [Compound 34-5, (S)-2-(2-chloro-3-methyl-4-((4-(trifluoromethoxy)benzyl)oxy)-benzo[b]thiophene-5-carboxamido)-2-(1-methylcyclopropyl)acetic acid]"
C (“C” refers to AUC @10 μM < 4),470,146,"Cc1csc2ccc(C(=O)N[C@H](C(=O)O)C(C)(C)C)c(OCc3ccc(C(F)(F)F)cc3)c12 [Compound 35-2, (2S)-3,3-dimethyl-2-[[3-methyl-4-[[4-(trifluoromethyl)phenyl]methoxy]-benzothiophene-5-carbonyl]amino]butanoic acid]"
C (“C” refers to AUC @10 μM < 4),1080,193,"CC(C)(C)[C@H](NC(=O)c1ccc2sccc2c1OCc1ccc(C(F)(F)F)cc1)C(=O)O [Compound 32-9, (2S)-3,3-dimethyl-2-(4-((4-(trifluoromethyl)benzyl)oxy)-benzo[b]thiophene-5-carboxamido)butanoic acid]"
A (“A” refers to AUC @10 μM > 6),406,222,CCC(C)(C)[C@H](NC(=O)c1ccc2sc(Cl)c(C)c2c1OCc1ccc(C(F)(F)F)cc1)C(=O)O [Compound 34-3]
A (“A” refers to AUC @10 μM > 6),1130,315,"CCc1cc2c(OCc3ccc(OC(F)(F)F)cc3)c(C(=O)N[C@H](C(=O)O)C(C)(C)C)ccc2s1 [Compound 33-23, (2S)-2-(2-ethyl-4-((4-(trifluoromethoxy)benzyl)oxy)-3a,7a-benzo[b]thiophene-5-carboxamido)-3,3-dimethylbutanoic acid]"
C (“C” refers to AUC @10 μM < 4),532,131,"CC(C)c1cc2ccc(C(=O)N[C@H](C(=O)O)C(C)(C)C)c(OCc3ccc(C(F)(F)F)cc3)c2s1 [Compound 33-31, (2S)-2-(2-isopropyl-7-((4-(trifluoromethyl)benzyl)oxy)-benzo[b]thiophene-6-carboxamido)-3,3-dimethylbutanoic acid]"
C (“C” refers to AUC @10 μM < 4),7310,85.3,"CCC(C)(C)[C@H](NC(=O)c1ccc2sccc2c1OCC1CCC(F)(F)CC1)C(=O)O [Compound 32-10, (2S)-2-(4-((4,4-difluorocyclohexyl)methoxy)-benzo[b]thiophene-5-carboxamido)-3,3-dimethylpentanoic acid]"
C (“C” refers to AUC @10 μM < 4),3300,142,"CC1(C(NC(=O)c2ccc3sccc3c2OCc2ccc(OC(F)(F)F)cc2)C(=O)O)CCCCC1 (stereo not drawn) [Compound 32-6, 2-(1-methylcyclohexyl)-2-(4-((4-(trifluoromethoxy)benzyl)oxy)-benzo[b]thiophene-5-carboxamido)acetic acid]"
A (“A” refers to AUC @10 μM > 6),500,279,"CCC(C)(C)[C@H](NC(=O)c1ccc2sc(Cl)cc2c1OCc1ccc(C(F)(F)F)cc1)C(=O)O [Compound 33-6, (2S)-2-(2-chloro-4-((4-(trifluoromethyl)benzyl)oxy)-benzo[b]thiophene-5-carboxamido)-3,3-dimethylpentanoic acid]"
C (“C” refers to AUC @10 μM < 4),4120,143,"CC(C)(C)[C@H](NC(=O)c1ccc2sccc2c1OCc1nc2ccccc2s1)C(=O)O [Compound 32-13, (2S)-2-(4-(benzo[d]thiazol-2-ylmethoxy)-benzo[b]thiophene-5-carboxamido)-3,3-dimethylbutanoic acid]"
A (“A” refers to AUC @10 μM > 6),1980,422,"CCC(C)(C)[C@H](NC(=O)c1ccc2sc(OC)cc2c1OCc1ccc(C(F)(F)F)cc1)C(=O)O [Compound 33-14, (2S)-2-(2-methoxy-4-((4-(trifluoromethyl)benzyl)oxy)-benzo[b]thiophene-5-carboxamido)-3,3-dimethylpentanoic acid]"
A (“A” refers to AUC @10 μM > 6),358,179,"CCC(C)(C)[C@H](NC(=O)c1ccc2sc(Cl)c(C)c2c1OCc1ccc(OC(F)(F)F)cc1)C(=O)O [Compound 34-1, (S)-2-(2-chloro-3-methyl-4-((4-(trifluoromethoxy)benzyl)oxy)-benzo[b]thiophene-5-carboxamido)-3,3-dimethylpentanoic acid]"
B (“B” refers to AUC @10 μM between 4-6),1090,197,"CCc1cc2ccc(C(=O)N[C@H](C(=O)O)C(C)(C)C)c(OCc3ccc(OC(F)(F)F)cc3)c2s1 [Compound 33-26, (2S)-2-(2-ethyl-7-((4-(trifluoromethoxy)benzyl)oxy)-benzo[b]thiophene-6-carboxamido)-3,3-dimethylbutanoic acid]"
